Assay results published in patent US20070060548A1, “Modulation of Epac, phospholipase Cepsilon, and phospholipase D to treat pain” (The Regents of the University of California, priority 2005, published 2007).
Values joined by “and” are separate entries in the source; they are usually repeats but may differ in a detail not shown here. Identical values can stand only once. “Also recorded” adds a separate entry of the source. Like-named read-outs stand apart in the source and are kept apart here.

Key:
[1] = tested on: PKCε translocation in cultured DRG neurons; assay: PKCε translocation to the plasma membrane in cultured DRG neurons (immunocytochemistry, 50 cells per culture counted); type: cell-based, rat; settings: for PKCε translocating cells after inhibitor pretreatment and CPTOMe stimulation: 15 min pretreatment (U73122/U73343 10 μM, 1-/2-butanol 50 mM), then CPTOMe 10 μM 90 s
Procedure: Cultures of dissociated dorsal root ganglia were prepared from male Sprague-Dawley rats (200-300 g, Charles River, Hollister, Calif., USA), adapting a previously described protocol (Khasar et al., 1999b). Rats were anesthetized with an overdose of Nembutal (50 mg per animal, s.c.). L1-L6 DRGs were removed, desheathed, pooled, incubated with collagenase (final concentration (f.c.) 0.125%, 1 h, 37° C.) followed by a trypsin digest (f.c. 0.25%, 7 min, 37° C.). Cells were separated by trituration with a fire polished Pasteur pipette. Axon stumps and dead cells were removed by straining (40 μm mesh), followed by centrifugation (3 min, 500 g). Cells were resuspended in 12 ml Neurobasal A/B27-media and plated 0.5 ml (=0.5 DRG equivalents) per culture onto polyornithine/laminin precoated glass cover slips (12 mm diameter) and incubated over night in 24-well plates at 37° C. in 5% CO2. Variability between batches of NeurobasalA media and its B27 supplement resulting in varying translocation of PKCε after stimulation was counteracted by the addition of up to […] ethanol (according to technical support of Invitrogen, less than 2.5% of the ethanol concentration already in the medium).
After a 15-20 h incubation, to allow cells to adhere to coverslips, the cells were stimulated. To ensure homogeneous dispersion of the stimulants, 250 μl of the 500 μl medium was removed, mixed thoroughly with the respective activator/inhibitor and added back to the same culture. […] Activators were added for the indicated time in concentrations based on literature reports. For all agonists time courses were established (some data not shown). Negative controls (unstimulated cells) were treated alike only without the addition of any pharmaceutical reagent. While the physiological stimulus epinephrine was used for the in vivo experiments, the β-AR agonist isoproterenol was used in vitro for identification of the β-AR subtype. After treatment the cells were washed once with phosphate buffered saline (PBS) and fixed with para-formaldehyde (PFA) (4%, 10 min, room temperature (RT)).
PFA-fixed cells were permeabilized with 0.1% Triton X-100 (10 min, RT), followed by three washes with 0.1% bovine serum albumin (BSA)/PBS (5 min, RT). After blockage of unspecific binding sites (5% BSA/10% normal goat serum/PBS, 1 h, RT) the cultures were probed with the respective primary antibody in 1% BSA/PBS (over night, 4° C.), washed three times (1% BSA/PBS, 5 min, RT) and incubated with the secondary fluorophore-coupled antiserum (final concentration (f.c.) 1:200, 1 h, RT). After three final washes (PBS, 5 min, RT), the cultures were mounted with Vectashield onto microscope slides and sealed with nail polish.
Cells were evaluated with a Nikon Microphot FXA microscope, using a 50× oil objective. 50 randomly selected cells per culture were evaluated. Data are plotted as mean percentage of translocating cells per evaluated culture±standard error of means (SEM) based on the number of evaluated cultures. All counting was done in blind fashion by the same observer. All treatments have been repeated with DRG-neurons from different rats, on at least 2 separate days. Confocal images were taken with a 100× oil immersion objective using a Zeiss Axiovert 100 microscope (Carl Zeiss Inc.) attached to a MRC 1000 confocal microscope (Bio-Rad). Epifluorescent images were taken with a 63× oil immersion objective using a Zeiss Axiovert 100 microscope.

[2] = tested on: Sprague-Dawley rats; assay: Mechanical nociceptive threshold, Randall-Selitto paw pressure test after intradermal injection; type: in vivo, rat; settings: for change of baseline mechanical sensitivity (paw-withdrawal threshold): inhibitor alone, without stimulation (U73122/U73343 2.5 μl 1 μg/μl, 1-/2-butanol 2.5 μl); for CPTOMe-induced hyperalgesia after inhibitor preinjection: inhibitor preinjected 30 min before CPTOMe, positive = hyperalgesia; for effect on epinephrine-induced mechanical hyperalgesia: preinjection 30 min before epinephrine (also stated for CPTOMe); for reduction of paw-withdrawal threshold: agent alone, intradermal (epinephrine 0.1 μg, CPTOMe 6.3 μg in 2.5 μl), measured 30 min after injection
Procedure: Behavioral experiments were performed on male Sprague-Dawley rats (200-300 g, Charles River, Hollister, Calif., USA). Animals were housed in a controlled environment in the Animal Care Facility of the University of California, San Francisco, under a 12 h light/dark cycle. Food and water were available ad libitum. Care and use of animals conformed to NIH guidelines. The UCSF Committee on Animal Research approved experimental protocols. All efforts were made to minimize the number of animals used. The nociceptive flexion reflex was quantified using the Randall-Selitto paw pressure device (Analgesymeter®, Stoetling), which applies a linearly increasing mechanical force to the dorsum of the rat's hind paw. The nociceptive mechanical threshold was defined as the force in grams at which the rat withdrew its paw. The protocols for this procedure have been previously described (Taiwo and Levine, 1989; Dina et al., 2003). Baseline paw-withdrawal threshold was defined as the mean of six readings before test agents were injected. Each paw was treated as an independent measure and each experiment was performed on a separate group of rats. Each group of rats was treated with only one agonist and/or antagonist injected peripherally by the intradermal route. Measurement of nociceptive threshold was taken 30 min after the administration of the hyperalgesic mediator. All behavioral testing was done between 10.00 and 16.00 h. The blocking agents were injected as described previously ([…] et al., 1995; […] et al., 1999a). […] […] et al., 1999a).

[3] = 15 min pretreatment (ICI 118,551 50 μM, D-609 30 μM, U73122/U73343 10 μM, 1-/2-butanol 50 mM, BIM 100 nM), then isoproterenol 1 μM 30 s
[4] = activator alone, 30 s stimulation (isoproterenol 1 μM, cholera toxin 1 μg/ml, forskolin 5 μM, CPTOMe 10 μM), mean±SEM

Row | Compound | PKCε translocating cells after inhibitor pretreatment and isoproterenol stimulation [1, 3] | PKCε translocating cells after inhibitor pretreatment and CPTOMe stimulation [1] [%] | change of baseline mechanical sensitivity (paw-withdrawal threshold) [2] | CPTOMe-induced hyperalgesia after inhibitor preinjection [2] | further results
1 | CCCCO [1-butanol] | 5.5±1.1% | 8.7±1.5 | −0.0%±1.8% | −0.5%±1.8% | effect on epinephrine-induced mechanical hyperalgesia [2]: inhibits completely
2 | CCC(C)O (stereo not shown) [2-butanol] | 16.0±2.4% | 21.8±2.7 | −8%±1.7% | 33.4±1.7% | 
3 | CN(C)CCCn1cc(C2=C(c3c[nH]c4ccccc34)C(=O)NC2=O)c2ccccc21 [BIM, bisindolylmaleimide I] |  |  |  |  | PKCε translocating cells after inhibitor pretreatment and isoproterenol stimulation [1]: 19.8±1.3%
4 | Cc1ncc2ccccc2c1C#N [CMIQ, 4-cyano-3-methylisoquinoline] |  |  |  |  | effect on isoproterenol-induced PKCε translocation ([1]; 15 min preincubation, up to 1000-fold IC50 (0.03-30 μM), then isoproterenol 1 μM 30 s): still translocated to the plasma membrane, as in control conditions; effect on mechanical paw-withdrawal threshold ([2]; CMIQ alone 2.5 μg/2.5 μl intradermally): did not change; effect on PKA catalytic subunit-induced hyperalgesia ([2]; CMIQ preinjected 15 min before PKAcs): completely abrogated; also recorded: completely blocked
5 | CO[C@@H]1[C@@H]2OP(=O)(O)OC[C@H]2O[C@H]1n1c(Sc2ccc(Cl)cc2)nc2c(N)ncnc21 [CPTOMe, 8-CPT-2′-O-Me-cAMP] |  |  |  |  | PKCε translocating cells [1]: 20.3±2.6% and 23.5±3.7%; time of maximal PKCε translocation ([1]; activator alone, time course): 90 s; CPTOMe-induced hyperalgesia ([2]; CPTOMe alone, comparator of the inhibitor experiment): 31.7%±0.8%; reduction of paw-withdrawal threshold [2]: 34.6±1.6%
6 | S=C([S-])OC1CC2CC1C1CCCC21.[K+] [D-609] | 20.8±2.9% |  |  |  | 
7 | Cc1ccc(OCC(O)C(C)NC(C)C)c2c1CCC2 (stereo not shown) [ICI 118,551] | 3.0%±1.1% |  |  |  | 
8 | COc1ccc2c(c1)CC[C@@H]1[C@@H]2CC[C@]2(C)[C@@H](NCCCCCCN3C(=O)C=CC3=O)CC[C@@H]12 [U73122] | 0.3±0.3% | 2.0±0.9 | −4.4%±1.3% | −2.5%±2.0% | effect on epinephrine-induced mechanical hyperalgesia [2]: completely blocked
9 | COc1ccc2c(c1)CC[C@@H]1[C@@H]2CC[C@]2(C)[C@@H](NCCCCCCN3C(=O)CCC3=O)CC[C@@H]12 [U73343] | 15.3±1.9% | 23.7±3.6 | 2.8%±1.9% | 30.9%±1.9% | 
10 | CNC[C@H](O)c1ccc(O)c(O)c1 [epinephrine] |  |  |  |  | reduction of paw-withdrawal threshold [2]: 37.7±1.9%
11 | C=C[C@@]1(C)CC(=O)[C@]2(O)[C@@]3(C)[C@@H](O)CCC(C)(C)[C@@H]3[C@H](O)[C@H](OC(C)=O)[C@@]2(C)O1 [forskolin] |  |  |  |  | PKCε translocating cells [1, 4]: 22.3±4.2%
12 | CC(C)NC[C@H](O)c1ccc(O)c(O)c1 [isoproterenol, (−)-isoproterenol] |  |  |  |  | PKCε translocating cells [1, 4]: 21.3%±2.8% and 19.0±3.0%; time of maximal PKCε translocation ([1]; activator alone, time course): about 30 s
13 | cholera toxin |  |  |  |  | PKCε translocating cells [1]: 15.2±3.0% and 24.0±1.9%; time of maximal PKCε translocation [1]: 90 s
